Like-named read-outs stand apart in the source and are kept apart here.
Legend:
L1210 = assay: Erythrosin B exclusion survival/mortality of L1210 in control or FMD medium; type: cell-based, murine
MEC2 = assay: Survival/mortality of MEC2 in control or FMD medium; type: cell-based, human; conditions: for effect of FMD medium on growth inhibitory effect of the drug: FMD vs control medium
MEC1 = assay: Survival/mortality of MEC1 in control or FMD medium; type: cell-based, human; conditions: for effect of FMD medium on growth inhibitory effect of the drug: FMD vs control medium
MEC1 cells [1] = assay: In vivo CLL model, histopathological analysis of organs (H&E); set-up: species or system Rag2−/−γc−/− female mice; conditions: majority of organs
Procedure: (§1) Eight-week-old Rag2−/−γ c−/− female mice were challenged intravenously (iv) via lateral tail veins with 10×10^6 MEC1 cells in 0.1 ml of saline through a 27-gauge needle, as previously described by Bertilaccio et al., (2010). Before injection, cells in log phase of growth were harvested and suspended in phosphate-buffered saline (PBS) at 100×10^6 cells/ml, and 100 μl (10×10^6 cells per mouse) was injected iv. All mice were gently warmed before intravenous injections to dilate the veins. Body weights were determined daily, and tumor progression was determined by blood smear. Animals were monitored every day for weight and general health conditions and were sacrificed when they experienced clinical signs of illness following the criteria approved and described in the protocol #742/2015—PR (see Animal Ethics Statement).
(§2) Animals were fasted for a total of 48 hours by complete deprivation of food but with free access to water. […] Body weight was measured daily and immediately before and after fasting. […]
For morphological analysis, organs (BM, spleen, kidney, liver and lung) were formalin-fixed, paraffin-embedded, cut at 3-μm-thick sections, and stained with hematoxylin and eosin. Histologic sections were evaluated in a double-blinded fashion. […] For these mice groups, the morphology of analyzed organ was similar to the control ([…]).

CD20 = conditions: rituximab-resistant cell lines in vitro; cited from earlier work
MEC1 cells [2] = assay: In vivo CLL model, FACS for human CD19/CD20/CD45 leukemic cells in tissues; set-up: species or system Rag2−/−γc−/− female mice; conditions: in combination with STS; majority of analyzed tissues
Procedure: as §1, §2
For FACS analysis, after blocking fragment crystallizable receptors for 10 minutes at room temperature to avoid nonspecific binding of antibodies, cells from PB, BM, peritoneal exudates, and spleen were stained with PE-Vio770 anti-human CD19 antibody. FITC anti-human CD20 and TRITC anti-human CD45 anti-human, respectively (MACS Miltenyi Biotec) and analyzed with BD FACSCANTO II flow cytometer. […]

[3] = In vivo CLL model, spleen weight; set-up: species or system Rag2−/−γc−/− female mice; conditions: fasted (STS) groups
Procedure: as §1
Animals were fasted for a total of 48 hours by complete deprivation of food but with free access to water. Mice were individually housed in a clean new cage to reduce cannibalism, coprophagy, and residual chow. Body weight was measured daily and immediately before and after fasting. […]
At the end of experimental procedure, peripheral blood (PB), peritoneal exudates and organs [spleen, kidneys, liver, lungs, and femoral bone marrow (BM)] were collected and analyzed either for FACS or morphological analyses. For all experimental group, spleen weight was measured (FIG. 21).

[4] = system: primary embryonic mouse fibroblast (MEF); conditions: 24 h, 10 μM
[5] = system: relapsed and refractory indolent lymphomas; conditions: single agent; cited from earlier work
[6] = alone or in combination with low glucose/FCS (FMD)

O=C(/C=C/c1cccc(S(=O)(=O)Nc2ccccc2)c1)NO [Belinostat]
killing tumor cells (L1210): very effective in killing tumor cells
effect of FMD medium on growth inhibitory effect of the drug (MEC2): remarkably improved
effect of FMD medium on growth inhibitory effect of the drug (MEC1): remarkably improved

CC(C)C[C@H](NC(=O)[C@H](Cc1ccccc1)NC(=O)c1cnccn1)B(O)O [Bortezomib]
killing tumor cells (L1210): very effective in killing tumor cells
effect of FMD medium on growth inhibitory effect of the drug (MEC2): remarkably improved
metastases and cluster of infiltration (MEC1 cells [1]; ad lib): lesser expanse
metastases and cluster of infiltration (MEC1 cells [1]; with STS): lesser expanse
effect of FMD medium on growth inhibitory effect of the drug (MEC1): remarkably improved
CD20 expression (CD20): increases CD20 expression
expression of human CD19, human CD20 and human CD45 (MEC1 cells [2]): significantly decreases
spleen weight [3]: significantly lower

COc1cc(/C=C/C(=O)CC(=O)/C=C/c2ccc(O)c(OC)c2)ccc1O [Curcumin]
reducing survival rates (L1210; [6]): did not show a strong efficiency

O=P1(N(CCCl)CCCl)NCCCO1 (stereo not drawn) [Cyclophosphamide]
killing tumor cells (L1210): very effective in killing tumor cells

C[C@]12C=CC(=O)C=C1CC[C@@H]1[C@@H]2C(=O)C[C@@]2(C)[C@H]1CC[C@]2(O)C(=O)CO [Prednisone]
reducing survival rates (L1210; [6]): did not show a strong efficiency
effect on L1210 growth (L1210; independently of the application of the FMD): no or limited effect

C/C=C1\NC(=O)[C@H]2CSSCC/C=C/[C@H](CC(=O)N[C@H](C(C)C)C(=O)N2)OC(=O)[C@H](C(C)C)NC1=O [Romidepsin]
decrease of percentage of surviving cells [4]: about 50%
mortality rate [4]: about 12%
percentage of mortality [4]: 4%
survival rate [4]: about 77%

O=C1O[C@H]([C@@H](O)CO)C(O)=C1O [Vitamin C, L-Ascorbic acid]
reducing survival rates (L1210): did not show a strong efficiency

(−)Epigallocatechin Gallate [EGCG]
reducing survival rates (L1210): did not show a strong efficiency

Rituximab
effect on cell survival and death (MEC2): very effective
effect on cell survival and death (MEC1): very effective
overall response rate [5]: 50%
